Reference: US20090197811A1, “ORALLY ADMINISTERED PEPTIDES TO IMPROVE OR PREVENT HEPATIC FIBROSIS” (University of Southern California, priority 2007, published 2009)
Entries after “also recorded” stand apart in the source; their conditions may differ. Non-standard residues stand in square brackets, D forms with d.

Key:
C57Bl/6J mice [1] = assay: Western diet model: fibrosis by Sirius red whole-section-scanning morphometric image analysis; format: in vivo, mouse
Protocol: (§1) Studies were performed in male C5713L/6J mice (Jackson Laboratories, Bar Harbor Me.). Six groups were studied (n=3-5, see FIG. 1) with 4 mice per group at the outset, except for group 2, which was started with n=5; 1 mouse died in group 1. Groups 1, 2, and 3 received the Western diet for 9.5 months; during the last 2.5 months of the 9.5 months, group 2 received SR141716 10 mg/kg/day i.g., and group 3 received D-4F, 125 μg/mouse/day, in the drinking water. Groups 4, 5, and 6 received the Western diet for 7 months followed by standard chow for 2.5 months; during the 2.5 months on standard chow, group 5 received SR141716 and group 6 received D-4F as described for groups 2 and 3, respectively. Additional control groups were studied: 6-month old C57Bl/6J mice as age-matched controls (n=5) and C57Bl/6J mice that received the Western diet for 6 months (n=6).
Sirius red staining was performed by the Morphology core of the USC-UCLA Research Center for Alcoholic Liver and Pancreatic Diseases. α-Smooth muscle actin.
Tissue sections stained with Sirius red were scanned by a third-generation Automated Cellular Imaging System (ACIS III), a highly automated microscope-based digital imaging system (Carl Zeiss MicroImaging AIS Inc., Aliso Viejo Calif.). The color of the Sirius red staining in the digitized tissue sections was determined and applied to a pre-existing algorithm that provides the area of a target color in μm^2. The outline of each digitized tissue section was manually traced using the computer's mouse. Areas of large portal tracts and central veins were also outlined manually. The total area (μm^2) of each tissue section and of the total area of large portal tracts and central veins were determined by the image analysis system. The area of fibrosis was calculated as [total area stained by Sirius red minus perivascular staining] as a percentage of the size of the tissue section. This method has the advantage of scanning the entire section, rather than measuring fibrosis in randomly chosen fields.

C57Bl/6J mice [2] = assay: Western diet model: α-smooth muscle actin staining of liver sections; format: in vivo, mouse; conditions: mice on the Western diet treated with D-4F (FIG. 4E)
Protocol: as §1
Sections of formalin-fixed, paraffin-embedded liver, 7 μm thick, were used for α-smooth muscle actin immunofluorescence staining. Slides were deparaffinized in xylene and serially rehydrated in graded ethanol (100-70%). Slides were treated with 0.1 M tris-HCl (pH 7.6)/0.05 Tween-20 for 5 min, incubated with 1 μg/ml proteinase K (Sigma, St Louis Mo.)) for 15 min at room temperature, and then rinsed in water for 10 min. […]

[3] = tested on: murine hepatic stellate cells (HSC); assay: Culture-induced activation of primary hepatic stellate cells (ASMA and oil red O staining); format: cell-based, mouse
Protocol: Murine hepatic stellate cells (HSC) were isolated by collagenase/pronase digestion and Stractan density gradient centrifugation^16. α-Smooth muscle actin (ASMA) staining: HSC were cultured on glass coverslips and fixed with 10% formaldehyde (EM Science, Gibbstown, N.J.) for 20 minutes at room temperature. Cells were incubated with a mouse monoclonal anti-ASMA (1:250 or 1:50, as indicated), followed by a rabbit anti-mouse IgG TRITC conjugate (1:50, Santa Cruz Scientific, Santa Cruz, Calif.). Slides were examined using a Nikon PCM-2000 confocal microscope with a Nikon Eclipse TE300 microscope with a plan Apo 60×/1.4 aperture oil immersion objective, 543-nm laser, and Simple PCI software from the C-Imaging series from Nikon/Compix Inc (Cranberry Township Pa.). Values were obtained by counting the number of ASMA positive cells in 15 randomly selected fields in triplicate. […]
To examine the mechanism of action of D-4F, murine hepatic stellate cells (HSC) were cultured on plastic for 7 days in the absence or presence of 10 μg/ml D-4F. Without D-4F, 87±2% of cells expressed α-smooth muscle actin (ASMA) after 7 days as assessed by confocal microscopy. In contrast, in the presence of D-4F 0% of HSC expressed ASMA after 7 days (see FIG. 7).

In the case of “Ac-D-W-F-K-A-F-Y-D-K-V-A-E-K-F-K-E-A-F-NH2 (Ac-[dD][dW][dF][dK][dA][dF][dY][dD][dK][dV][dA][dE][dK][dF][dK][dE][dA][dF]-NH2; not fully specified; printed as Ac-D-W-F-K-A-F-Y-D-K-V-A-E-K-F-K-E-A-F-NH2) [D-4F]”, the “fibrosis (surface area positive for Sirius red staining)” value (C57Bl/6J mice [1]; group 3: Western diet 9.5 months, D-4F 125 μg/mouse/day in drinking water last 2.5 months, group 1 without drug 4.6±1.9%) is reported as 1.25%, the “fibrosis (surface area positive for Sirius red staining)” value (C57Bl/6J mice [1]; group 6: 7 months Western diet, then 2.5 months chow plus D-4F, group 4 chow alone 2.8±0.7%) is reported as 0.9±0.2% and the “progression of fibrosis after onset of steatohepatitis” value (C57Bl/6J mice [1]; summary statement) is reported as “prevented progression of fibrosis”. For the same substance, the “activated stellate cells in liver sections (α-smooth muscle actin staining)” value (C57Bl/6J mice [2]) was “decrease in activated stellate cells”, the “cytoplasmic fat (lipid) droplets, oil red O staining” value ([3]; HSC cultured 7 days in the presence of D-4F vs without) was “maintain significantly more lipid droplets; also recorded: maintained cytoplasmic fat droplets” and the “hepatic stellate cell activation in vitro” value ([3]; summary statement) was “prevented hepatic stellate cell activation”.
